Measurements as given in publication PMC7366380, “Discovery of a Potent and Selective Covalent Inhibitor and Activity-Based Probe for the Deubiquitylating Enzyme UCHL1, with Antifibrotic Activity” (Journal of the American Chemical Society, 2020).
“And” between values parts separate entries of the source, which are not always exact repeats. Equal values may be shown once.

How the values were obtained:
UCHL1 = target: T1, UCHL1 (Homo sapiens, UniProt P09936); assay: UCHL1 inhibitor kinetic analysis (Ub-AMC fluorescence intensity); format: biochemical; parameters: rapidly targets endogenous UCHL1 in cells; endogenous in cells; host or cells: HEK293; details: UCHL1 3 nM, Ub-AMC 130 nM; read-out: kobs/I
T1 sequence (P09936 1-223): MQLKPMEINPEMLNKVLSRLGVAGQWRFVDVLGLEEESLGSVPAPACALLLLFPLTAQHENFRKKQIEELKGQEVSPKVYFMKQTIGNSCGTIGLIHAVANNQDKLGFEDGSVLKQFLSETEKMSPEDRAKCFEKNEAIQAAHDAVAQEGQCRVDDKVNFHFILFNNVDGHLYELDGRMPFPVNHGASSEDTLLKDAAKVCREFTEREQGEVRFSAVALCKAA

[1] = test system: FLAG-UCHL1 (WT, C90A, C90S); details: HeLa cells overexpressing FLAG-UCHL1, 1 h
PSMD14 = PSMD14 (Homo sapiens, UniProt O00487); assay: Quantitative chemical proteomic profiling of ABP 2 in HEK293 cells: PSMD14; details: for Log2 reporter intensity values (Log2FC, DMSO substract): PSMD14, listed as ABP 2
[2] = target: T2, DUBs and other proteins in HEK293 cells (Homo sapiens, UniProt P51665); assay: Quantitative chemical proteomic profiling of ABP 2 in HEK293 cells: other DUBs and proteins across the proteome; details: PSMD7, listed as ABP 2
T2 sequence (P51665 1-324): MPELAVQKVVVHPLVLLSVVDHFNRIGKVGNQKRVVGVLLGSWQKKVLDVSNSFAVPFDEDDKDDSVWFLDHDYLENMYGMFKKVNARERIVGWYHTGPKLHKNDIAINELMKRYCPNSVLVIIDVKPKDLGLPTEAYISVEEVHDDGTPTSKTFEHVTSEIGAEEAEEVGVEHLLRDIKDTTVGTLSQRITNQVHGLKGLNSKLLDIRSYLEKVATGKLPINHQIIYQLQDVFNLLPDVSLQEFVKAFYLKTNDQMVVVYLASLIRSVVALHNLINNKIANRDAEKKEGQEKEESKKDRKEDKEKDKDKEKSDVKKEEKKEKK

[3] = target: DUBs and other proteins in HEK293 cells (Homo sapiens, UniProt P51784); assay: as above; details: USP11, listed as ABP 2
[4] = target: DUBs and other proteins in HEK293 cells (Homo sapiens, UniProt Q7L5N1); assay: as above; details: COPS6, listed as ABP 2
[5] = target: DUBs and other proteins in HEK293 cells (Homo sapiens, UniProt Q92905); assay: as above; details: COPS5, listed as ABP 2
in vitro = details: human
[6] = 200 nM, 180 min, replicates A,C

Chain of DUBs and other proteins in HEK293 cells (Homo sapiens, UniProt P51784) (P51784 whole entry): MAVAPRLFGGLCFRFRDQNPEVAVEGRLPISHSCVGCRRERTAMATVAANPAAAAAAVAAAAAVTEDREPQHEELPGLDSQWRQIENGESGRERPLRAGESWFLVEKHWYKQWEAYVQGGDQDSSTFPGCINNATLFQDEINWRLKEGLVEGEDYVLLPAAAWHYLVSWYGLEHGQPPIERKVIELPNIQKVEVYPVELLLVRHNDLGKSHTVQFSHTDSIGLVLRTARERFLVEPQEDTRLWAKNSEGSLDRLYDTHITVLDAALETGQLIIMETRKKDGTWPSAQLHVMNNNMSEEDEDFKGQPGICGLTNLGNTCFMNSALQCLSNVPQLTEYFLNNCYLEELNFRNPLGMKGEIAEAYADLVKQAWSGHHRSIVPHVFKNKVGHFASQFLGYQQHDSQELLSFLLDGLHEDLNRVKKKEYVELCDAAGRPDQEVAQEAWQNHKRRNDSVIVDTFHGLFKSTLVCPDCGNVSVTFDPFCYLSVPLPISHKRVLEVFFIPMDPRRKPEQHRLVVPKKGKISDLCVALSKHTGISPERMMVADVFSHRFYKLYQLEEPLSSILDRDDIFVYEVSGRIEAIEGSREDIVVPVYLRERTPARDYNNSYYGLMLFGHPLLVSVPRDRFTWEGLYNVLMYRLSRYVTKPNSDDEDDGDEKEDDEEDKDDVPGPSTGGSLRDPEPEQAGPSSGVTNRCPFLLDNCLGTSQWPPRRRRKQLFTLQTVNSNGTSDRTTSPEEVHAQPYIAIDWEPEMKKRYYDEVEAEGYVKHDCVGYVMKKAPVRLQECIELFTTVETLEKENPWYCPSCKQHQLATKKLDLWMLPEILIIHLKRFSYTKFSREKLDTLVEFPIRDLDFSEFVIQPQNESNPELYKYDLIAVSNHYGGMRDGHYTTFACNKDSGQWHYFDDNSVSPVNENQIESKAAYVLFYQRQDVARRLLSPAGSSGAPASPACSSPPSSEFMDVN
Chain of DUBs and other proteins in HEK293 cells (Homo sapiens, UniProt Q7L5N1) (Q7L5N1 whole entry): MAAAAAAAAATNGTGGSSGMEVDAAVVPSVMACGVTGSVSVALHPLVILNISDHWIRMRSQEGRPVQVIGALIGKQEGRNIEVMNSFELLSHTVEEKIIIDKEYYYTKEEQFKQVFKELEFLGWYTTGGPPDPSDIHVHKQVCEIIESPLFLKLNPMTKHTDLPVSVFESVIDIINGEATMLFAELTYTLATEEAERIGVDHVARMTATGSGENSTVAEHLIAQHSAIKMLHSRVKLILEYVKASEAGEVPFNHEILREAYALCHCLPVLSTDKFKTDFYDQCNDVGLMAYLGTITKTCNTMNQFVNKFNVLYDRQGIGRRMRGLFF
Chain of DUBs and other proteins in HEK293 cells (Homo sapiens, UniProt Q92905) (Q92905 whole entry): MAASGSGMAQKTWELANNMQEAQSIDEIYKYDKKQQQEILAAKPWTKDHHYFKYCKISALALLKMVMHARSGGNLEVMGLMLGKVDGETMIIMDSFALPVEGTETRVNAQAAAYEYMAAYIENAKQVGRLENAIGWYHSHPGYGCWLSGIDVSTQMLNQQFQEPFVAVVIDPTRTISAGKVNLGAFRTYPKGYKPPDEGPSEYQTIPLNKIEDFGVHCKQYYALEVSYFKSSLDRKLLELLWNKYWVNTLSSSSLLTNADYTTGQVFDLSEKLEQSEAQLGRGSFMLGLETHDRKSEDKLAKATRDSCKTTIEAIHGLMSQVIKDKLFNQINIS

N#CN1CCC[C@H]1C(=O)N1CCc2c(-c3c[nH]c4ncccc34)cccc21 [Compound 1]
kinact/KI (UCHL1): 7400 M⁻¹ s⁻¹

C#Cc1cnc2[nH]cc(-c3cccc4c3CCN4C(=O)[C@@H]3CCCN3C#N)c2c1 [Compound 2]
labeling of WT versus C90A/C90S UCHL1 [1]: only WT UCHL1 is labeled | Log2 t-test Difference, PSMD14, 2 nM (PSMD14; HEK293, 2 nM vs DMSO, 1 h, enrichment, TMT, n=3): 0.06988 | Log2 t-test Difference, PSMD14, 20 nM (PSMD14; HEK293, 20 nM vs DMSO, 1 h, enrichment, TMT, n=3): -0.004272 | Log2 t-test Difference, PSMD14, 200 nM (PSMD14; HEK293, 200 nM vs DMSO, 1 h, enrichment, TMT, n=3): 0.1265 | Log2 reporter intensity values (Log2FC, DMSO substract) (PSMD14; 2 nM, 60 min, replicates A-C): 0.2334 and 0.06155 and -0.08529 | Log2 reporter intensity values (Log2FC, DMSO substract) (PSMD14; 20 nM, 10 min, replicates B,C): -0.01968 and 0.08775 | Log2 reporter intensity values (Log2FC, DMSO substract) (PSMD14; 20 nM, 60 min, replicates A-C): -0.03468 and 0.06905 and -0.04719 | Log2 reporter intensity values (Log2FC, DMSO substract) (PSMD14; 20 nM, 180 min, replicates A-C): 0.05966 and 0.0953 and 0.01379 | Log2 reporter intensity values (Log2FC, DMSO substract) (PSMD14; 200 nM, 10 min, replicates B,C): 0.3381 and 0.09077 | Log2 reporter intensity values (Log2FC, DMSO substract) (PSMD14; 200 nM, 60 min, replicates A-C): 0.2255 and 0.1628 and -0.008927 | Log2 reporter intensity values (Log2FC, DMSO substract) (PSMD14; [6]): 0.02414 and 0.2255 | Log2 reporter intensity values (Log2FC, DMSO substract) ([2]; 2 nM, 60 min, replicates A-C): -0.04989 and -0.02897 and -0.2015 | Log2 reporter intensity values (Log2FC, DMSO substract) ([2]; 20 nM, 10 min, replicates B,C): -0.09409 and -0.09867 | Log2 reporter intensity values (Log2FC, DMSO substract) ([2]; 20 nM, 60 min, replicates A-C): 0.07866 and 0.1721 and 0.02873 | Log2 reporter intensity values (Log2FC, DMSO substract) ([2]; 20 nM, 180 min, replicates A-C): 0.04655 and 0.01609 and -0.03959 | Log2 reporter intensity values (Log2FC, DMSO substract) ([2]; 200 nM, 10 min, replicates B,C): 0.1092 and 0.06216 | Log2 reporter intensity values (Log2FC, DMSO substract) ([2]; 200 nM, 60 min, replicates A-C): -0.1489 and -0.1748 | Log2 reporter intensity values (Log2FC, DMSO substract) [2, 6]: -0.06266 and -0.01801 | Log2 reporter intensity values (Log2FC, DMSO substract) ([3]; 2 nM, 60 min, replicates A-C): 0.1233 and -0.3054 and -0.2167 | Log2 reporter intensity values (Log2FC, DMSO substract) ([3]; 20 nM, 10 min, replicates B,C): -0.09443 and -0.2626 | Log2 reporter intensity values (Log2FC, DMSO substract) ([3]; 20 nM, 60 min, replicates A-C): -0.4096 and 0.07333 and 0.009688 | Log2 reporter intensity values (Log2FC, DMSO substract) ([3]; 20 nM, 180 min, replicates A-C): -0.127 and -0.3984 and -0.1331 | Log2 reporter intensity values (Log2FC, DMSO substract) ([3]; 200 nM, 10 min, replicates B,C): 0.008113 and -0.08322 | Log2 reporter intensity values (Log2FC, DMSO substract) ([3]; 200 nM, 60 min, replicates A-C): 0.1655 and -0.03212 and -0.2868 | Log2 reporter intensity values (Log2FC, DMSO substract) [3, 6]: 0.2311 and 0.03651 | Log2 reporter intensity values (Log2FC, DMSO substract) ([4]; 2 nM, 60 min, replicates A-C): -0.04023 and 0.308 | Log2 reporter intensity values (Log2FC, DMSO substract) ([4]; 20 nM, 10 min, replicates B,C): -0.278 and 0.05496 | Log2 reporter intensity values (Log2FC, DMSO substract) ([4]; 20 nM, 60 min, replicates A-C): -0.132 and -0.1593 and 0.09464 | Log2 reporter intensity values (Log2FC, DMSO substract) ([4]; 20 nM, 180 min, replicates A-C): -0.02381 and 0.4095 and -0.1139 | Log2 reporter intensity values (Log2FC, DMSO substract) ([4]; 200 nM, 10 min, replicates B,C): 0.1379 and -0.08033 | Log2 reporter intensity values (Log2FC, DMSO substract) ([4]; 200 nM, 60 min, replicates A-C): 0.1575 and 0.03437 and 0.12 | Log2 reporter intensity values (Log2FC, DMSO substract) [4, 6]: 0.2559 and 0.1548 | Log2 reporter intensity values (Log2FC, DMSO substract) ([5]; 2 nM, 60 min, replicates A-C): -0.07206 and -0.06602 and 0.07642 | Log2 reporter intensity values (Log2FC, DMSO substract) ([5]; 20 nM, 10 min, replicates B,C): -0.04991 and -0.07182 | Log2 reporter intensity values (Log2FC, DMSO substract) ([5]; 20 nM, 60 min, replicates A-C): -0.1096 and -0.2324 and -0.02748 | Log2 reporter intensity values (Log2FC, DMSO substract) ([5]; 20 nM, 180 min, replicates A-C): -0.1203 and -0.07618 and -0.1432 | Log2 reporter intensity values (Log2FC, DMSO substract) ([5]; 200 nM, 10 min, replicates B,C): -0.09582 and 0.125 | Log2 reporter intensity values (Log2FC, DMSO substract) ([5]; 200 nM, 60 min, replicates A-C): 0.01523 and 0.2396 and 0.003556 | Log2 reporter intensity values (Log2FC, DMSO substract) [5, 6]: 0.05752 and -0.04833

CC(=O)O/N=C1\C(=O)N(Cc2cc(Cl)ccc2Cl)c2ccc(Cl)cc21 [LDN-57444, reference compound]
EC50 at 3 days (in vitro): ~9.2 µM
